Measurements published in publication PMC12621184, “Synthesis and Pharmacological Characterization of Nociceptin/Orphanin FQ Dimeric Ligands” (Journal of Medicinal Chemistry, 2025).
Values joined by “and” are separate entries in the source; they are usually repeats but may differ in a detail not shown here. Equal values may be shown once. Bridge positions count the residues as written; N and C are the ends. Peptide text beside a SMILES is read from it. I, II: the chains in the order shown.

Key:
human κ opioid receptor = target: T1, human κ opioid receptor (Homo sapiens, UniProt P41145); experiment: Calcium mobilization assay, CHO cells with κ receptor and chimeric G protein; type: cell-based; settings: CHO cells coexpressing human κ receptor and Gαqi5; 5 experiments in duplicate; read-out: calcium mobilization at κ receptor, concentration up to which inactive
T1 construct: expressed in transfected cells
Experimental: Chinese hamster ovary (CHO) cells stably coexpressing the human NOP, μ, or κ opioid receptors and the Gαqi5 protein or the human δ and the GαqG66Di5 protein were used in this assay. , Cells were cultured in DMEM/F-12 (1:1) medium supplemented with 10% FBS, 2 mM L-glutamine, […], 100 IU/mL penicillin, and 100 IU/mL streptomycin. Cells were maintained at 37 °C in a humidified atmosphere with 5% CO2 and were seeded at 50 000 cells/well into 96-well black, clear-bottom plates 24 h before test. Loading for 45 min with a solution consisting of HBSS supplemented with 2.5 mM probenecid, 3 μM Fluo-4 AM, and 0.01% pluronic acid ensures the calcium-sensitive dye (Fluo-4) reaches the needed concentration inside the cell, while the exchange of the solution with 100 μL/well of buffer consisting of HBSS with 20 mM HEPES, 2.5 mM probenecid, and 500 μM Brilliant Black allows for fluorescence background to decrease. Serial dilutions of ligands were prepared in HBSS buffer with 20 mM HEPES and 0.02% bovine serum albumin (BSA) to minimize the ligands’ stickiness to plasticware. The automated microplate reader FlexStation II (Molecular Devices, CA, US) was employed at 37 °C to detect changes in fluorescence intensity. The effects of all compounds were expressed as the maximum change in percentage over the baseline fluorescence measured in samples treated with vehicles. […]

[1] = test system: mouse vas deferens from NOP(−/−) mice; experiment: Electrically stimulated mouse vas deferens bioassay, NOP(−/−) tissues; settings: mVD from CD-1 NOP(−/−) mice; 5 experiments
Experimental: This study was approved by the Animal Welfare Body of the University of Ferrara and by the Italian Ministry of Health (authorization number CBCC2.N.BXI). Experiments were performed on an isolated mouse vas deferens. All experiments were conducted with mice bred and housed in the University of Ferrara’s animal facility under specific pathogen-free conditions (SPF). All mice were housed in cages with individual ventilation, with a constant temperature of 21 °C, 60% humidity, and a 12 h light/dark cycle. Food and water were provided ad libitum. CD-1 NOP(+/+) and CD-1 NOP(−/−) male mice, aged 9 to 12 months, were used. Animals were sacrificed on the day of the experiment with CO2 overdose. Bioassay experiments were performed as previously described. The tissues were suspended in 5 mL organ bath containing Krebs solution (NaCl 118.5 […]). The Krebs solution was oxygenated with 95% O2 and 5% CO2 and the temperature set at 33 °C with a resting tension of 0.3 g applied to the tissues. Tissues were stimulated through two platinum electrodes with a supramaximal rectangular pulse of 1 ms duration, 0.05 Hz frequency, and 80 V of amplitude. The electrically evoked contractions were measured isotonically by means of Basile strain gauge transducers (Basile, IT) and a recorder with a Power Lab 8 instrument (ADInstruments, CO, U.S.). Following an equilibration period of approximately 60 min, the contractions induced by electrical field stimulation were stable. At this time, cumulative concentration response curves were carried out.
Concentration-response curves to agonists were analyzed by a four-parameter logistic nonlinear regression model: Effect = baseline + (E max – baseline)/(1 + 10^((logEC50–log[ligand])slope)). […] Experimental data were expressed as mean ± sem of at least 5 experiments. Potency values were expressed as the mean and CL95%. In vitro E max values were analyzed by one-way ANOVA, while in vivo latency data were evaluated by one-way ANOVA followed by Dunnett’s post hoc test. […]

human NOP = human NOP (Homo sapiens, UniProt P41146); experiment: NOP receptor–G protein interaction BRET assay; type: biochemical; design: expressed in transfected cells; host or cells: membranes of HEK293 cells stably coexpressing NOP-RLuc and Gβ1-RGFP; settings: N = 5 experiments in duplicate
Method in brief: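 Membranes (3 μg protein) from HEK293 cells stably coexpressing NOP-RLuc and Gβ1-RGFP were tested with 2 μM Prolume Purple coelenterazine at room temperature. BRET ratios (510/405 nm) were averaged over 10 min, vehicle-subtracted and normalized to N/OFQ maximal effect.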

T1 sequence (P41145 whole entry): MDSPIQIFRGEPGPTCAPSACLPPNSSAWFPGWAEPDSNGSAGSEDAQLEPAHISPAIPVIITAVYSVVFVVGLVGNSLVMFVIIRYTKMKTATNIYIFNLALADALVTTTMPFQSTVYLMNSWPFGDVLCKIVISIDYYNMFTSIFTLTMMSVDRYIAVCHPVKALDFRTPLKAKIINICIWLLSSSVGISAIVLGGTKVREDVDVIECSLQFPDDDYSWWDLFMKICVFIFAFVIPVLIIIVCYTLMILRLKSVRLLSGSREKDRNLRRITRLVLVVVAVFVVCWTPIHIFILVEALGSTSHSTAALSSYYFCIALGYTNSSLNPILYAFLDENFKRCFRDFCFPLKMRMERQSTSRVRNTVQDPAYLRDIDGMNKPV

## C[C@H](NC(=O)CNC(=O)[C@@H](NC(=O)[C@H](Cc1ccccc1)NC(=O)CNC(=O)CNC(=O)[C@@H](N)Cc1ccccc1)[C@@H](C)O)C(=O)N[C@@H](CCCNC(=N)N)C(=O)N[C@@H](CCCCN)C(=O)N[C@@H](CO)C(=O)N[C@@H](C)C(=O)N[C@@H](CCCNC(=N)N)C(=O)N[C@@H](CCCCN)C(=O)N[C@@H](CSSC[C@H](NC(=O)[C@H](CCCCN)NC(=O)[C@H](CCCNC(=N)N)NC(=O)[C@H](C)NC(=O)[C@H](CO)NC(=O)[C@H](CCCCN)NC(=O)[C@H](CCCNC(=N)N)NC(=O)[C@H](C)NC(=O)CNC(=O)[C@@H](NC(=O)[C@H](Cc1ccccc1)NC(=O)CNC(=O)CNC(=O)[C@@H](N)Cc1ccccc1)[C@@H](C)O)C(=O)N[C@@H](C)C(=O)N[C@@H](CC(N)=O)C(=O)N[C@@H](CCC(N)=O)C(N)=O)C(=O)N[C@@H](C)C(=O)N[C@@H](CC(N)=O)C(=O)N[C@@H](CCC(N)=O)C(N)=O [1h, [[Cys^14]N/OFQ-NH2]2] (I: H-FGGFTGARKSARKCANQ-NH2 / II: H-FGGFTGARKSARKCANQ-NH2; disulfide I:14-II:14; N-terminus assumed)
Human κ opioid receptor
  EC50: > 1000 nM
[1]
  effect in mVD tissues from NOP(−/−) mice (in words): no effect
Human NOP; effects normalized to N/OFQ-NH2 (E max = 1), mean ± sem
  NOP–G protein interaction E max ± sem: 0.80 ± 0.08
Human NOP; membranes from HEK293 cells coexpressing NOP-RLuc and Gβ1-RGFP, room temperature, mean (CL95%), read-out: NOP–G protein interaction pEC50 (CL95%) (converted)
  EC50: < 1 nM and 0.123 nM
